Experiments:
[1] = tested on: GABA-A early inhibition due to basket cells; settings: slice specimens; cited from earlier work
[2] = tested on: inhibitory circuit (GABA-A early inhibition); test: Inhibition rate (prepulse attenuation) of auditory change-related brain activity by magnetoencephalography, before and after drug administration; assay type: in vivo, human; settings: for effect of drug on inhibition: 5 mg single oral administration
Experimental: In the present embodiment, an action of inhibitory circuits of 13 humans was evaluated using an excitatory circuit for a change response to a sound pressure change in an auditory system. As for the change response, when a sudden slight increase in sound pressure (10 dB) is generated in a background sound in which a short click sound (70 dB) of 1 ms is continuously generated at a frequency of 100 Hz, the human brain reacts thereto with very high sensitivity and a remarkable brain response is triggered.
The evaluation system included a stimulus output unit and a brain activity measurement unit.
Full-head measurement with the cerebral magnetic field measurement unit was performed using a magnetoencephalograph (306 channel magnetoencephalograph (Vector View, Neuromag, Helsinki, Finland)).
Three kinds of stimuli, namely, the test stimulus, the preceding stimulus, and the test+preceding stimulus were sequentially applied to the subject at regular intervals from the stimulus output irnit through an insert earphone from the start of the test, and brain activity induced by the activation of the excitatory circuit at this time was measured as a cerebral magnetic field. […] A predetermined number of trials could be designated in the cerebral magnetic field measurement unit, addition was performed automatically, and an attenuation rate (inhibition rate) was obtained from the amplitude of the addition waveform.
Effect of diazepam (5 mg single oral administration) on inhibition was examined by comparing the inhibition rates before and after the administration of the drug to two subjects of different types by the same recording procedure as in first embodiment. The amplitude of the response was taken between vertices of a component of 50 ms and a component of 100 ms (black triangles).

For `CN1C(=O)CN=C(c2ccccc2)c2cc(Cl)ccc21` [diazepam], the “effect on GABA-A early inhibition due to basket cells” value [1] is listed as “enhances”, the “change of inhibition after the administration” value ([2]; Subject 1 (strong inhibition before administration), diazepam 5 mg single oral administration, 1 hour after administration) is listed as “little change” and the “effect of drug on inhibition” value ([2]; Subject 1) is listed as “small effect”. The “inhibition rate after the administration” value ([2]; Subject 2 (weak early inhibition before administration), diazepam 5 mg single oral administration, 1 hour after administration) was 45% and the “effect of drug on inhibition” value ([2]; Subject 2) was “strong effect”.
